Columns and labels:
Type in all cases: cell-based
A549 = assay: Test A: Cytostatic Cell Culture Assay (GI50), A549; conditions: Homo sapiens, 120 h; A549 cells, 5 days, SRB; read-out: G150 Lung A549
From the text: (§1) Test A: Cytostatic Cell Culture Assay (GI50)
(§2) This assay is based on quantification of cell counts by a calorimetric detection of the cell associated proteins. The assay relies on the ability of sulforhodamine B (SRB) to bind to protein components of cells that have been fixed to tissue-culture plates by trichloroacetic acid (TCA). SRB is a bright-pink aminoxanthene dye with two sulfonic groups that bind to basic amino-acid residues under mild acidic conditions, and dissociate under basic conditions. As the binding of SRB is stoichiometric, the amount of dye extracted from stained cells is directly proportional to the cell mass.
(§3) Cell lines: All cell lines are obtained from ATCC (Manassas, Va.). Cultivation media containing Glutanax, and trypsin are purchased from Invitrogen (Carlsbad, Calif.). Doxorubicin, Clofarabine, TCA and SRB are from Sigma-Aldrich (St. Louis, Mo.). Gemcitabine is obtained from Moravek Biochemicals (Brea, Calif.)
(§4) • 1. Trypsinize the sub-confluent cells, count them, and adjust the cell concentrations according to the cell counts listed in Table 1. • 2. Distribute the cells into the 96-well plates in 150 μL of media. Incubate the plates overnight in humidified CO2 incubator at 37° C. • 3. Fix one plate of each cell line with TCA. Discard the cultivation media from the plates by flicking them gently and add 100 μL cold 10% (vol/vol) TCA to each well. Incubate the plates at 4 degree refrigerator for 1 hour. Discard TCA from the plates by flicking them gently. Rinse plates four times in a washing basin containing tap water. Store the plates at room temperature. These plates represent cell counts on day zero. • 4. Prepare a set of medium solutions containing various concentrations of tested compounds by making 5-fold serial dilutions in 96-well plate. Add 50 μL of the diluted compounds per well. Include controls with untreated cells and cells treated with doxorubicin, clofarabine and gemcitabine. • 5. Incubate the plates for 5 days at 37° C. • 6. Fix the plates with TCA. Discard the cultivation media from the plates by flicking them gently and add 100 μL cold 10% (vol/vol) TCA to each well. Incubate the plates at 4 degree refrigerator for 1 hour. Discard TCA from the plates by flicking them gently. Rinse plates four times in a washing basin containing tap water. • 7. Remove excess water by tapping the plates face down, gently on a paper towel. Allow the plates to air-dry at room temperature. • 8. Add 100 μL of 0.057% SRB solution in 1% (vol/vol) acetic acid to each well of the plates fixed with TCA on day zero and five. Leave at room temperature for 30 minutes. • 9. Flick the plates gently to discard SRB. Rinse the plates four times with 1% (vol/vol) Acetic Acid. • 10. Store the plates at 370 incubator to facilitate faster drying. • 11. Once the plates are completely dry, add 200 μL of 10 mM Tris base solution (pH 10.5) to each well. Leave at room temperature for 30 minutes for SRB to solubilize. • 12. Measure the OD at 500 nm in a microplate reader. • 13. Calculate the percentage of cell-growth inhibition using the next formula: % of control cell growth=100×(ODsample−mean ODday0)/(ODneg control−mean ODday0)
(§5) For GI50 determination, plot a dose-response curves between the compound concentration and percent of growth inhibition. GI50 values can be derived by fitting dose-response curves using sigmoidal dose response equation.

NCIH23 = assay: Test A: Cytostatic Cell Culture Assay (GI50), NCIH23; conditions: Homo sapiens, NCI-H23, 120 h; NCIH23 cells, 5 days, SRB; read-out: G150 Lung NCIH23
From the text: as §1, §2, §3, §4, §5

Du145 = assay: Test A: Cytostatic Cell Culture Assay (GI50), Du145; conditions: Homo sapiens, DU-145, 120 h; Du145 cells, 5 days, SRB; read-out: G150 Prostate Du145
From the text: as §1, §2, §3, §4, §5

PC3 = assay: Test A: Cytostatic Cell Culture Assay (GI50), PC3; conditions: Homo sapiens, PC-3, 120 h; PC3 cells, 5 days, SRB; read-out: G150 Prostate PC3
From the text: as §1, §2, §3, §4, §5

HCT116 = assay: Test A: Cytostatic Cell Culture Assay (GI50), HCT116; conditions: Homo sapiens, HCT-116, 120 h; HCT116 cells, 5 days, SRB; read-out: G150 Colon HCT116
From the text: as §1, §2, §3, §4, §5

HCT15 = assay: Test A: Cytostatic Cell Culture Assay (GI50), HCT15; conditions: Homo sapiens, HCT-15, 120 h; HCT15 cells, 5 days, SRB; read-out: G150 Colon HCT15
From the text: as §1, §2, §3, §4, §5

Hs578 = assay: Test A: Cytostatic Cell Culture Assay (GI50), Hs578; conditions: 120 h; Hs578 cells, 5 days, SRB; read-out: G150 Breast Hs578
From the text: as §1, §2, §3, §4, §5

[1] = system: Human T-lymphoid cell line CCRF-CEM; assay: Cell cycle distribution in human T-lymphoid cells (propidium iodide, flow cytometry); conditions: 72 hours; for Relative change in cell cycle phase compared to untreated control, G1 / Relative change in cell cycle phase compared to untreated control, G2/M / Relative change in cell cycle phase compared to untreated control, S: concentration corresponding to CC50, untreated control = 1
Experimental: Effects of the Compounds on Cell Cycle Distribution in Human T-Lymphoid Cells
Human T-lymphoid cell line CCRF-CEM is treated with tested compounds for 72 hours at the concentration corresponding to the CC50 value of each compound. At the end of incubation, cells are harvested by centrifugation, washed, and fixed in ethanol. Fixed cells are stained with propidium iodide in a buffer containing RNaseA and the cell cycle distribution analysis is performed by flow cytometry using BD FACSAria instrument. Data are processed using BD FACSDiva software v4.1 and presented as a percentage of analyzed cell population in Phase G1, S, and G2/M. Cell cycle distribution is determined in parallel for untreated and treated cells and relative change for each cell cycle phase is calculated.
The data represent changes in the frequency of each cell cycle phase in treated cells relative to untreated control (the relative fraction of each analyzed cell cycle phase in untreated control has the value of 1).
Primary data are shown in Table 3, with values representing the percentage distribution of each cell cycle phase in the total cell population.

Compound	IC50 (A549) [nM]	IC50 (Du145) [nM]	IC50 (PC3) [nM]	IC50 (HCT116) [nM]	IC50 (HCT15) [nM]	IC50 (NCIH23) [µM]	IC50 (Hs578) [nM]	Relative change in cell cycle phase compared to untreated control, G1 [1]	Relative change in cell cycle phase compared to untreated control, G2/M [1]	Relative change in cell cycle phase compared to untreated control, S [1]	other results
OC[C@H]1O[C@@H](n2ccc3c(-c4ccco4)ncnc32)[C@H](O)[C@@H]1O [Example 5, 4-(Furan-2-yl)-7-(β-D-ribofuranosyl)-7H-pyrrolo[2,3-d]pyrimidine]	88	7	91	78	20	4.2	49	0.57	1.19	1.38	G1 % ([1]; 0.3 μM, replicate 1): 26.14%; G2/M % ([1]; 0.3 μM, replicate 1): 11.89%; S % ([1]; 0.3 μM, replicate 1): 61.98%; G1 % ([1]; 0.3 μM, replicate 2): 23.61%; G2/M % ([1]; 0.3 μM, replicate 2): 16.41%; S % ([1]; 0.3 μM, replicate 2): 59.99%
OC[C@H]1O[C@@H](n2ccc3c(-c4cccs4)ncnc32)[C@H](O)[C@@H]1O [Example 6, 7-(β-D-Ribofuranosyl)-4-(thiophen-2-yl)-7H-pyrrolo[2,3-d]pyrimidine]	45	9	67	49	78	4.1	101	0.52	1.54	1.34	G1 % ([1]; 0.3 μM, replicate 1): 30.82%; G2/M % ([1]; 0.3 μM, replicate 1): 14.53%; S % ([1]; 0.3 μM, replicate 1): 54.65%; G1 % ([1]; 0.3 μM, replicate 2): 14.66%; G2/M % ([1]; 0.3 μM, replicate 2): 22.05%; S % ([1]; 0.3 μM, replicate 2): 63.29%
OC[C@H]1O[C@@H](n2cc(F)c3c(-c4ccco4)ncnc32)[C@H](O)[C@@H]1O [Example 20, 5-Fluoro-4-(furan-2-yl)-7-(β-D-ribofuranosyl)-7H-pyrrolo[2,3-d]pyrimidine]	109	5	75	39	57	4.3	175	0.61	2.00	1.06	G1 % ([1]; 1.5 μM, replicate 1): 22.32%; G2/M % ([1]; 1.5 μM, replicate 1): 30.19%; S % ([1]; 1.5 μM, replicate 1): 47.49%; G1 % ([1]; 1.5 μM, replicate 2): 28.81%; G2/M % ([1]; 1.5 μM, replicate 2): 25.24%; S % ([1]; 1.5 μM, replicate 2): 45.95%
OC[C@H]1O[C@@H](n2cc(F)c3c(-c4cccs4)ncnc32)[C@H](O)[C@@H]1O [Example 21]	61	9	83	9	18	4.7	132	0.74	1.38	1.12	G1 % ([1]; 0.3 μM, replicate 1): 30.83%; G2/M % ([1]; 0.3 μM, replicate 1): 22.80%; S % ([1]; 0.3 μM, replicate 1): 46.37%; G1 % ([1]; 0.3 μM, replicate 2): 32.73%; G2/M % ([1]; 0.3 μM, replicate 2): 23.53%; S % ([1]; 0.3 μM, replicate 2): 43.74%
OC[C@H]1O[C@@H](n2cc(F)c3c(-c4c[nH]cn4)ncnc32)[C@H](O)[C@@H]1O [Example 26, 5-Fluoro-4-(1H-imidazol-4-yl)-7-(β-D-ribofuranosyl)-7H-pyrrolo[2,3-d]pyrimidine]	> 20000	887	2110	> 20000	3590	7.62	2110	–	–	–	–
OC[C@H]1O[C@@H](n2cc(F)c3c(-c4cc[nH]c4)ncnc32)[C@H](O)[C@@H]1O [Example 27, 5-Fluoro-7-(β-D-ribofuranosyl)-4-(pyrrol-3-yl)-7H-pyrrolo[2,3-d]pyrimidine]	126	10	60	255	65	1.6	356	–	–	–	–

The next lines start with results.

IC50 (A549) [nM]	IC50 (Du145) [nM]	IC50 (PC3) [nM]	IC50 (HCT116) [nM]	IC50 (HCT15) [nM]	Compound	IC50 (NCIH23) [µM]	IC50 (Hs578) [nM]	Relative change in cell cycle phase compared to untreated control, G1 [1]	Relative change in cell cycle phase compared to untreated control, G2/M [1]	Relative change in cell cycle phase compared to untreated control, S [1]	other results
2470	138	263	1420	290	OC[C@H]1O[C@@H](n2cc(Cl)c3c(-c4ccccc4)ncnc32)[C@H](O)[C@@H]1O [Example 28, 5-Chloro-4-phenyl-7-(β-D-ribofuranosyl)-7H-pyrrolo[2,3-d]pyrimidine]	5.02	13200	–	–	–	–
15200	10000	> 20000	> 20000	8150	OC[C@H]1O[C@@H](n2cc(Cl)c3c(-c4ccco4)ncnc32)[C@H](O)[C@@H]1O [Example 29, 5-Chloro-4-(furan-2-yl)-7-(β-D-ribofuranosyl)-7H-pyrrolo[2,3-d]pyrimidine]	13.2	> 20000	–	–	–	–
375	13	35	275	81	OC[C@H]1O[C@@H](n2cc(Cl)c3c(-c4cccs4)ncnc32)[C@H](O)[C@@H]1O [Example 30, 5-Chloro-7-(β-D-ribofuranosyl)-4-(thiophen-2-yl)-7H-pyrrolo[2,3-d]pyrimidine]	2.02	1640	–	–	–	–
1050	54	1200	1960	632	OC[C@H]1O[C@@H](n2cc(Cl)c3c(-c4ccoc4)ncnc32)[C@H](O)[C@@H]1O [Example 31, 5-Chloro-4-(furan-3-yl)-7-(β-D-ribofuranosyl)-7H-pyrrolo[2,3-d]pyrimidine]	5.26	1580	–	–	–	–
378	18	118	101	148	OC[C@H]1O[C@@H](n2cc(Cl)c3c(-c4ccsc4)ncnc32)[C@H](O)[C@@H]1O [Example 32, 5-Chloro-7-(β-D-ribofuranosyl)-4-(thiophen-3-yl)-7H-pyrrolo[2,3-d]pyrimidine]	4.54	109	–	–	–	–

Source: patent publication US8093226B2, “Cytostatic 7-deazapurine nucleosides” (Institute of Organic Chemistry and Biochemistry of the …, priority 2008, dated 2012)
